From article PMC4594035, “Xenopus borealis as an alternative source of oocytes for biophysical and pharmacological studies of neuronal ion channels” (Scientific Reports, 2015)

How the values were obtained:
NaV1.2 = experiment: Inhibition of NaV1.2 by ProTx-I, two-electrode voltage-clamp in Xenopus oocytes; format: cell-based; details: 300 nM ProTx-I; depolarisation to –15 mV from holding potential −80 mV; n = 8–9; Fig. 3f; P > 0.05
Method: (§1) X. laevis (Xenopus Express) and X. borealis (Nasco) oocytes were surgically removed from anaesthetised (Tricaine methanesulfonate, MS-222) female frogs and treated with collagenase (1 mg/ml; Sigma type I) for defolliculation. cRNAs were synthesised using an mMessage mMachine cRNA transcription kit (Ambion Inc., Austin, TX, USA) and injected into stage V–VI oocytes at 4–200 ng per cell. Oocytes were stored at 17 °C in ND96 solution (96 mM NaCl, 1.8 mM CaCl2, 2 mM KCl, 2 mM MgCl2, 5 mM HEPES, pH 7.4) supplemented with 2.5 mM pyruvic acid, 50 μg/mL gentamicin, and either 2.5% horse serum or 0.5 mM theophylline. Membrane currents were recorded 2–10 days after injection under voltage-clamp (Axoclamp 900A or Geneclamp 500B, Molecular Devices, CA, USA) using two standard glass microelectrodes of 0.5–2 MΩ resistance when filled with 3 M KCl solution. Data acquisition and analysis were performed using pCLAMP software (Version 9.2 or 10, Molecular Devices, Sunnyvale, CA, USA). All experiments were performed at room temperature (18–21 °C) in ND96 solution. Experiments containing peptides were performed in ND96 solution containing 0.1% fatty acid free-bovine serum albumin (Sigma). […]
(§2) All data were analysed using Prism 6.0 (GraphPad Software, San Diego, CA, USA). […] For both t-tests, it was assumed data was sampled from Gaussian populations, and P values were calculated from two-tailed tests. […]

NaV1.5 = experiment: Inhibition of NaV1.5 by ProTx-I, two-electrode voltage-clamp in Xenopus oocytes; format: cell-based; details: 300 nM ProTx-I; depolarisation to –15 mV from holding potential −80 mV; n = 8–9; Fig. 3f; P > 0.05
Method: as §1, §2

NaV1.7 = experiment: Inhibition of NaV1.7 by ProTx-I, two-electrode voltage-clamp in Xenopus oocytes; format: cell-based; details: 300 nM ProTx-I; depolarisation to –15 mV from holding potential −80 mV; n = 8–9; Fig. 3f; P > 0.05
Method: as §1, §2

NaV channel = details: cited from earlier work
Method: Two-electrode voltage-clamp electrophysiology recordings were performed to compare the properties of a panel of KV and voltage-gated sodium (NaV) channels heterologously expressed in X. laevis and X. borealis oocytes. […] Conductance-voltage relationship curves obtained for NaV1.2 (Fig. 3c), NaV1.5 (Fig. 3d), and NaV1.7 (Fig. 3e) overlap ...

α1β2γ2L GABAAR = α1β2γ2L GABAAR (Homo sapiens, UniProt P14867+P47870); experiment: GABA activation of α1β2γ2L GABAAR, two-electrode voltage-clamp in Xenopus oocytes; format: cell-based; details: n = 9–10; for Slope (Hill coefficient): mean
Sequence of α1β2γ2L GABAAR (P14867 28-456): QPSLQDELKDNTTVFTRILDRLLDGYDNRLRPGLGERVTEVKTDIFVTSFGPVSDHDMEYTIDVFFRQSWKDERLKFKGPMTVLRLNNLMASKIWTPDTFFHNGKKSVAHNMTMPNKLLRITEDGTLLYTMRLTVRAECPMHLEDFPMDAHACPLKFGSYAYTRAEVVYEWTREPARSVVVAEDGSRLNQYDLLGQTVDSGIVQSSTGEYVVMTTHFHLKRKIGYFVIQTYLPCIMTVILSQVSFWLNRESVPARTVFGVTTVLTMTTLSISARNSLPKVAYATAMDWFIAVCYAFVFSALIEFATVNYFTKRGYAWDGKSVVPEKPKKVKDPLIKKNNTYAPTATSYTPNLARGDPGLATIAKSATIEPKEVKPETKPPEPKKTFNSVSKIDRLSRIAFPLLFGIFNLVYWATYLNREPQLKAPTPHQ
Sequence of α1β2γ2L GABAAR (P47870 26-512): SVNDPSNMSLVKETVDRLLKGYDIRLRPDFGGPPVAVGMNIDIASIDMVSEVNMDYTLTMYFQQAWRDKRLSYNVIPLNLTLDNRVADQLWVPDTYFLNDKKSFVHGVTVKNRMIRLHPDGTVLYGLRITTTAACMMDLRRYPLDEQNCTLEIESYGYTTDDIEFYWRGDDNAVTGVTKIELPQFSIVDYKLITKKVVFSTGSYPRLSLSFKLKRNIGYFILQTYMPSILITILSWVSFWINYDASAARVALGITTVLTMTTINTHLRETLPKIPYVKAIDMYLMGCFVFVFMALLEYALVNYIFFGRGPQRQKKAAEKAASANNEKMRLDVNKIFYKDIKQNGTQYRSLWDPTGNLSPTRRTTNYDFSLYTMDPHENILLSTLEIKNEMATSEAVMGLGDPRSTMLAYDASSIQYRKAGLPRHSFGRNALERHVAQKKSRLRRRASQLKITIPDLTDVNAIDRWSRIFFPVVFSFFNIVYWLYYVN
Sequence of α1β2γ2L GABAAR (P18507 40-475 partner): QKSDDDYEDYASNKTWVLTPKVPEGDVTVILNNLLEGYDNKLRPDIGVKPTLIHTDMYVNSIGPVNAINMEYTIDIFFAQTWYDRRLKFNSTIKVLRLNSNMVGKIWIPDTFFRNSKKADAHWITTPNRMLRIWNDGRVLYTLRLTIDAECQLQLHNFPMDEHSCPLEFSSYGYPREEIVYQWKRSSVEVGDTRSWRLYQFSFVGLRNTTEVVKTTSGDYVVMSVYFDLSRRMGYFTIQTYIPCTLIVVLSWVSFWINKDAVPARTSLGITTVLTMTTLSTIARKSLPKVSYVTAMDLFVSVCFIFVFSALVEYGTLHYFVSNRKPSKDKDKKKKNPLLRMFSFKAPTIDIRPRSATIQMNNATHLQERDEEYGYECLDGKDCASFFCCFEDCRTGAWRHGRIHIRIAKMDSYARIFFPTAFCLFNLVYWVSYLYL
Method: (§3) X. laevis (Xenopus Express) and X. borealis (Nasco) oocytes were surgically removed from anaesthetised (Tricaine methanesulfonate, MS-222) female frogs and treated with collagenase (1 mg/ml; Sigma type I) for defolliculation. cRNAs were synthesised using an mMessage mMachine cRNA transcription kit (Ambion Inc., Austin, TX, USA) and injected into stage V–VI oocytes at 4–200 ng per cell. Oocytes were stored at 17 °C in ND96 solution (96 mM NaCl, 1.8 mM CaCl2, 2 mM KCl, 2 mM MgCl2, 5 mM HEPES, pH 7.4) supplemented with 2.5 mM pyruvic acid, 50 μg/mL gentamicin, and either 2.5% horse serum or 0.5 mM theophylline. Membrane currents were recorded 2–10 days after injection under voltage-clamp (Axoclamp 900A or Geneclamp 500B, Molecular Devices, CA, USA) using two standard glass microelectrodes of 0.5–2 MΩ resistance when filled with 3 M KCl solution. Data acquisition and analysis were performed using pCLAMP software (Version 9.2 or 10, Molecular Devices, Sunnyvale, CA, USA). All experiments were performed at room temperature (18–21 °C) in ND96 solution. Experiments containing peptides were performed in ND96 solution containing 0.1% fatty acid free-bovine serum albumin (Sigma). Recordings were performed as previously described for ASICs[30][31], GABAAR[32][33], GlyR[34], KV[6][8][35], and NaV[36] channels.
(§4) All data were analysed using Prism 6.0 (GraphPad Software, San Diego, CA, USA). The Hill equation was fitted to normalised concentration-response curves to obtain the half-maximal response (EC50, IC50, or pH50) and Hill coefficient (nH). Voltage-dependent activation curves were fit with the Boltzmann equation to obtain the V0.5 (the voltage corresponding to half-maximal effect). Data are shown as mean and 95% confidence intervals, and n represents the number of oocytes for a given experiment (taken from at least three different frogs). […] For both t-tests, it was assumed data was sampled from Gaussian populations, and P values were calculated from two-tailed tests. […]

α5β2γ2L GABAAR = α5β2γ2L GABAAR (Homo sapiens, UniProt P31644+P47870); experiment: GABA activation of α5β2γ2L GABAAR, two-electrode voltage-clamp in Xenopus oocytes; format: cell-based; details: n = 9–10; for Slope (Hill coefficient): mean
Sequence of α5β2γ2L GABAAR (P31644 32-462): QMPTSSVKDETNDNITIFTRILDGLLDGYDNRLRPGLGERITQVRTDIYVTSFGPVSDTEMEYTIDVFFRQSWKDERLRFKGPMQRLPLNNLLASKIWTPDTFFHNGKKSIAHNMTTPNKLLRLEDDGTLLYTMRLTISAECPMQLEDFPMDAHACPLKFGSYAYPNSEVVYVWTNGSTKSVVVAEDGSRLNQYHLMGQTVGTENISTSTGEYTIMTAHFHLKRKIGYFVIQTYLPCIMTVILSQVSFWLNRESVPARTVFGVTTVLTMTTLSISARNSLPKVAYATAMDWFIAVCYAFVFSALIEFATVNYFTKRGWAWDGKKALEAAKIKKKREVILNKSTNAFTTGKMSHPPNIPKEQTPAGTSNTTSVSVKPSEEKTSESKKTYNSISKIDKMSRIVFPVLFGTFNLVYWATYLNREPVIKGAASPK
Sequence of α5β2γ2L GABAAR (P47870 26-512): as the sequence (P47870 26-512) above
Sequence of α5β2γ2L GABAAR (P18507 40-475 partner): as the sequence (P18507 40-475 partner) above
Method: as §3, §4

α5β3γ2L GABAAR = α5β3γ2L GABAAR (Homo sapiens, UniProt P28472+P31644); experiment: GABA activation of α5β3γ2L GABAAR, two-electrode voltage-clamp in Xenopus oocytes; format: cell-based; details: n = 9–10; for Slope (Hill coefficient): mean
Sequence of α5β3γ2L GABAAR (P31644 32-462): as the sequence (P31644 32-462) above
Sequence of α5β3γ2L GABAAR (P28472 26-473): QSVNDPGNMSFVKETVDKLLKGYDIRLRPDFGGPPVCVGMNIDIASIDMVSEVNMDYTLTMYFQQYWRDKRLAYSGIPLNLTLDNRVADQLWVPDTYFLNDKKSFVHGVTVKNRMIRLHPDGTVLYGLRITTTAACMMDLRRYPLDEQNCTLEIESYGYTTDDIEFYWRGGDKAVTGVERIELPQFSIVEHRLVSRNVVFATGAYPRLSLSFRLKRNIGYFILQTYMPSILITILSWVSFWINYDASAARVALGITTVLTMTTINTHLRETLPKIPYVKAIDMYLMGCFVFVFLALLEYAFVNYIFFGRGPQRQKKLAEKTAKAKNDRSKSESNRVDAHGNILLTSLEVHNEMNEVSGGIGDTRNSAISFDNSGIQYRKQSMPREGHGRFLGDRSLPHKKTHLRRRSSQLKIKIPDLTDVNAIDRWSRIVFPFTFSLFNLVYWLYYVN
Sequence of α5β3γ2L GABAAR (P18507 40-475 partner): as the sequence (P18507 40-475 partner) above
Method: as §3, §4

[1] = X. laevis compared with X. borealis oocytes

| Compound | Inhibition by ProTx-I, X. laevis vs X. borealis (NaV1.2) | Inhibition by ProTx-I, X. laevis vs X. borealis (NaV1.5) | Inhibition by ProTx-I, X. laevis vs X. borealis (NaV1.7) | NaV channel inhibition (NaV channel) | Slope (Hill coefficient) (α1β2γ2L GABAAR; X. borealis oocytes) | Concentration-effect curves for GABA activation, X. laevis vs X. borealis (α1β2γ2L GABAAR; [1]) | Slope (Hill coefficient) (α1β2γ2L GABAAR; X. laevis oocytes) | Slope (Hill coefficient) (α5β2γ2L GABAAR; X. borealis oocytes) | Concentration-effect curves for GABA activation, X. laevis vs X. borealis (α5β2γ2L GABAAR; [1]) | Slope (Hill coefficient) (α5β2γ2L GABAAR; X. laevis oocytes) | Slope (Hill coefficient) (α5β3γ2L GABAAR; X. borealis oocytes) | Concentration-effect curves for GABA activation, X. laevis vs X. borealis (α5β3γ2L GABAAR; [1]) | Slope (Hill coefficient) (α5β3γ2L GABAAR; X. laevis oocytes) |
| --- | --- | --- | --- | --- | --- | --- | --- | --- | --- | --- | --- | --- | --- |
| ProTx-I | Comparable levels of inhibition between species | Comparable levels of inhibition between species | Comparable levels of inhibition between species | potent and non-selective NaV channel inhibitor | – | – | – | – | – | – | – | – | – |
| NCCCC(=O)O [GABA, γ-aminobutyric acid] | – | – | – | – | 0.60 | no difference in the concentration-effect curves | 0.56 | 0.74 | no difference in the concentration-effect curves | 0.49 | 0.93 | no difference in the concentration-effect curves | 0.75 |
